Laboratory results reported in PubChem BioAssay AID256 (DTP/NCI, 2004).
Where “and” joins values, the source holds several entries; their conditions need not be identical. Equal entries are not always repeated. Inconclusive results and toxic doses are left out. The calls were made as follows: active = survival T/C of 150% or more; inactive = T/C below 125% in these data.

Tested on: CD2F1 mice, L1210 leukemia ip, survival T/C
Assay: NCI In Vivo Anticancer Drug Screen. Data for tumor model L1210 Leukemia (intraperitoneal) in CD2F1 (CDF1) mice
Conditions: higher = longer survival
In short: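 In this screen, transplantable tumors were grown in mice given either the compound or its vehicle. Results were expressed as the treated measurement relative to the control measurement.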

[1] = endpoint: mean survival time, dose: 12.5 mg/kg/injection, schedule: Q01DX009 (ip), vehicle: saline with Tween-80
[2] = endpoint: mean survival time, dose: 25.0 mg/kg/injection, schedule: Q01DX009 (ip), vehicle: saline with Tween-80
[3] = endpoint: mean survival time, dose: 50.0 mg/kg/injection, schedule: Q01DX009 (ip), vehicle: saline with Tween-80
[4] = endpoint: mean survival time, dose: 100.0 mg/kg/injection, schedule: Q01DX009 (ip), vehicle: saline with Tween-80
[5] = endpoint: mean survival time, dose: 200.0 mg/kg/injection, schedule: Q01DX009 (ip), vehicle: saline with Tween-80
[6] = endpoint: mean survival time, dose: 25.0 mg/kg/injection, schedule: Q01DX009 (ip), vehicle: saline
[7] = endpoint: mean survival time, dose: 100.0 mg/kg/injection, schedule: Q04DX003 (ip), vehicle: saline
[8] = endpoint: mean survival time, dose: 100.0 mg/kg/injection, schedule: Q04DX003 (ip), vehicle: saline with Tween-80
[9] = endpoint: mean survival time, dose: 400.0 mg/kg/injection, schedule: Q04DX003 (ip), vehicle: saline with Tween-80
[10] = endpoint: mean survival time, dose: 200.0 mg/kg/injection, schedule: Q04DX003 (ip), vehicle: saline
[11] = endpoint: mean survival time, dose: 400.0 mg/kg/injection, schedule: Q04DX003 (ip), vehicle: saline

Measured: T/C

C[S+](C)CCC(N)C(=O)O (stereo not given)
inactive: endpoint: median survival time, dose: 3.13 mg/kg/injection, schedule: Q04DX002 (ip), vehicle: saline 105 % of control | endpoint: median survival time, dose: 6.25 mg/kg/injection, schedule: Q04DX002 (ip), vehicle: saline 105 % of control | endpoint: median survival time, dose: 12.5 mg/kg/injection, schedule: Q04DX002 (ip), vehicle: saline 108 % of control | endpoint: median survival time, dose: 25.0 mg/kg/injection, schedule: Q04DX002 (ip), vehicle: saline 100 % of control | endpoint: median survival time, dose: 50.0 mg/kg/injection, schedule: Q04DX002 (ip), vehicle: saline 117 % of control

Oc1ccc(I)c2cccnc12
inactive: [1] 98 % of control | [2] 98 % of control | endpoint: mean survival time, dose: 45.0 mg/kg/injection, schedule: Q01DX009 (ip), vehicle: saline 97 % of control | [3] 98 % of control | endpoint: mean survival time, dose: 90.0 mg/kg/injection, schedule: Q01DX009 (ip), vehicle: saline 108 % of control | [4] 98 % of control | endpoint: mean survival time, dose: 180.0 mg/kg/injection, schedule: Q01DX009 (ip), vehicle: saline 112 % of control | [5] 104 % of control

C=CC(N)=O
inactive: [6] 102 % of control | endpoint: mean survival time, dose: 25.0 mg/kg/injection, schedule: Q04DX003 (ip), vehicle: saline 92 % of control | endpoint: mean survival time, dose: 50.0 mg/kg/injection, schedule: Q01DX009 (ip), vehicle: saline 92 % of control | endpoint: mean survival time, dose: 50.0 mg/kg/injection, schedule: Q04DX003 (ip), vehicle: saline 105 % of control | [7] 97 % of control

CN(C)c1nnc(N(C)C)s1
inactive: [8] 100 % of control | endpoint: mean survival time, dose: 200.0 mg/kg/injection, schedule: Q04DX003 (ip), vehicle: saline with Tween-80 98 % of control | [9] 98 % of control

CCc1ccc(C2=C(O)C(=O)C(c3ccc(CC)cc3)=C(O)C2=O)cc1
inactive: endpoint: mean survival time, dose: 1.56 mg/kg/injection, schedule: Q01DX001 (ip), vehicle: Klucel (hydroxypropylcellulose) (HPC) 97 % of control | endpoint: mean survival time, dose: 3.12 mg/kg/injection, schedule: Q01DX009 (ip), vehicle: saline with Tween-80 97 % of control | endpoint: mean survival time, dose: 3.13 mg/kg/injection, schedule: Q01DX001 (ip), vehicle: Klucel (hydroxypropylcellulose) (HPC) 96 % of control | endpoint: mean survival time, dose: 6.25 mg/kg/injection, schedule: Q01DX001 (ip), vehicle: Klucel (hydroxypropylcellulose) (HPC) 96 % of control | endpoint: mean survival time, dose: 6.25 mg/kg/injection, schedule: Q01DX009 (ip), vehicle: saline with Tween-80 89 % of control and 109 % of control | [1] 104 % of control | endpoint: mean survival time, dose: 25.0 mg/kg/injection, schedule: Q01DX001 (ip), vehicle: Klucel (hydroxypropylcellulose) (HPC) 120 % of control | [2] 106 % of control and 111 % of control | [3] 119 % of control

ClCCN(CCCl)c1ccc(N=Nc2ccc(Cl)cc2)cc1
inactive: endpoint: mean survival time, dose: 100.0 mg/kg/injection, schedule: Q01DX001 (ip), vehicle: Klucel (hydroxypropylcellulose) (HPC) 94 % of control | endpoint: mean survival time, dose: 200.0 mg/kg/injection, schedule: Q01DX001 (ip), vehicle: Klucel (hydroxypropylcellulose) (HPC) 94 % of control | endpoint: mean survival time, dose: 400.0 mg/kg/injection, schedule: Q01DX001 (ip), vehicle: Klucel (hydroxypropylcellulose) (HPC) 97 % of control

Nc1nc2c(nc(N3CCCC3)n2C2OC(CO)C(O)C2O)c(=O)[nH]1 (stereo not given)
inactive: endpoint: mean survival time, dose: 12.5 mg/kg/injection, schedule: Q01DX005 (ip), vehicle: distilled water + Tween-80 100 % of control | endpoint: mean survival time, dose: 25.0 mg/kg/injection, schedule: Q01DX005 (ip), vehicle: distilled water + Tween-80 102 % of control | endpoint: mean survival time, dose: 50.0 mg/kg/injection, schedule: Q01DX005 (ip), vehicle: distilled water + Tween-80 98 % of control | endpoint: mean survival time, dose: 100.0 mg/kg/injection, schedule: Q01DX005 (ip), vehicle: distilled water + Tween-80 100 % of control | endpoint: mean survival time, dose: 200.0 mg/kg/injection, schedule: Q01DX005 (ip), vehicle: distilled water + Tween-80 100 % of control

C1CCN(NC2=NCCO2)CC1
inactive: endpoint: mean survival time, dose: 6.25 mg/kg/injection, schedule: Q01DX009 (ip), vehicle: saline 101 % of control | endpoint: mean survival time, dose: 12.5 mg/kg/injection, schedule: Q01DX009 (ip), vehicle: saline 98 % of control | [6] 98 % of control

CCCC(=O)c1ccc(C)cc1
inactive: [8] 97 % of control | [9] 88 % of control

Cn1c(=O)c2c(ncn2CCCNCC(O)c2ccc(O)c(CO)c2)n(C)c1=O (stereo not given)
inactive: endpoint: mean survival time, dose: 12.5 mg/kg/injection, schedule: Q01DX005 (ip), vehicle: water 96 % of control | endpoint: mean survival time, dose: 25.0 mg/kg/injection, schedule: Q01DX005 (ip), vehicle: water 96 % of control | endpoint: mean survival time, dose: 50.0 mg/kg/injection, schedule: Q01DX005 (ip), vehicle: water 100 % of control | endpoint: mean survival time, dose: 100.0 mg/kg/injection, schedule: Q01DX005 (ip), vehicle: water 96 % of control | endpoint: mean survival time, dose: 200.0 mg/kg/injection, schedule: Q01DX005 (ip), vehicle: water 98 % of control

CCN(CC)c1nc(Cl)nc(NC(C)C)n1
inactive: [4] 100 % of control | [7] 103 % of control | [5] 101 % of control | [10] 100 % of control | endpoint: mean survival time, dose: 400.0 mg/kg/injection, schedule: Q01DX009 (ip), vehicle: saline with Tween-80 94 % of control | [11] 103 % of control

CC(C)CC(NC(c1ccccc1)(c1ccccc1)c1ccccc1)C(=O)O (stereo not given)
inactive: endpoint: mean survival time, dose: 100.0 mg/kg/injection, schedule: Q01DX001 (ip), vehicle: saline 102 % of control | endpoint: mean survival time, dose: 200.0 mg/kg/injection, schedule: Q01DX001 (ip), vehicle: saline 95 % of control | endpoint: mean survival time, dose: 400.0 mg/kg/injection, schedule: Q01DX001 (ip), vehicle: saline 102 % of control

O=C1c2cccc3cc([N+](=O)[O-])cc(c23)C(=O)N1CCN1CCCC1
inactive: endpoint: mean survival time, dose: 1.5 mg/kg/injection, schedule: Q01DX009 (ip), vehicle: saline with Tween-80 107 % of control | endpoint: mean survival time, dose: 1.5 mg/kg/injection, schedule: Q01DX009 (ip), vehicle: saline 100 % of control | endpoint: mean survival time, dose: 3.0 mg/kg/injection, schedule: Q01DX009 (ip), vehicle: saline with Tween-80 113 % of control | endpoint: mean survival time, dose: 3.0 mg/kg/injection, schedule: Q01DX009 (ip), vehicle: saline 100 % of control | endpoint: mean survival time, dose: 6.0 mg/kg/injection, schedule: Q01DX009 (ip), vehicle: saline 113 % of control | endpoint: mean survival time, dose: 12.0 mg/kg/injection, schedule: Q01DX009 (ip), vehicle: saline 115 % of control | endpoint: mean survival time, dose: 24.0 mg/kg/injection, schedule: Q01DX009 (ip), vehicle: saline with Tween-80 91 % of control | endpoint: mean survival time, dose: 24.0 mg/kg/injection, schedule: Q01DX009 (ip), vehicle: saline 111 % of control | endpoint: median survival time, dose: 1.56 mg/kg/injection, schedule: Q01DX009 (ip), vehicle: saline with Tween-80 96 % of control | endpoint: median survival time, dose: 3.12 mg/kg/injection, schedule: Q01DX009 (ip), vehicle: saline with Tween-80 101 % of control and 107 % of control | endpoint: median survival time, dose: 6.25 mg/kg/injection, schedule: Q01DX009 (ip), vehicle: saline with Tween-80 104 % of control and 107 % of control | endpoint: median survival time, dose: 12.5 mg/kg/injection, schedule: Q01DX009 (ip), vehicle: saline with Tween-80 117 % of control and 119 % of control | endpoint: median survival time, dose: 50.0 mg/kg/injection, schedule: Q01DX009 (ip), vehicle: saline with Tween-80 86 % of control

COC1(C)CCC(=O)O1 (stereo not given)
inactive: [7] 96 % of control | [10] 96 % of control | [11] 101 % of control

CSC(=S)N(C)/N=C/c1ccccn1
inactive: [4] 98 % of control | [5] 96 % of control
